Source: patent US20200316077A1, “PHARMACEUTICAL COMPOSITION FOR THE TREATMENT OF CANCER” (IMPETIS BIOSCIENCES LTD., priority 2017, published 2020)

What was measured:
[1] = test system: CT26 cells (colon cancer); assay: CT26 Colon Cancer Model: tumor suppression in mice; format: in vivo; settings: BALB/c mice, 3 mg/kg, PO, BID, Day 22, n = 12
Procedure: (§1) Tumor Suppression Activity of Adenosine A2A (Compound 31) and A2B (Compound 169) Antagonists in Xenograft Models of Cancer
(§2) General Protocol: 6-8 weeks old BALB/c mice were acclimated and on Day 1 of the study, the mice were injected with 50 μL of medium containing 5×10^4 4T1 cells (breast cancer) or 5×10^5 CT26 cells (colon cancer). On day 8 or 9, the mice were segregated into different groups and treated orally with either vehicle (1% Tween-80+0.5% Carboxymethylcellulose in water) or test compound [(Compound 32 5-Amino-3-[2-[4-[2-fluoro-4-(2-methoxyethoxy)phenyl]piperazin-1-yl]ethyl]-8-(2-furyl)-1-methyl-[1,2,4]triazolo[5,1-f]purin-2-one (32) & Phosphoric acid mono-{2-cyano-6-oxo-1-propyl-8-[1-(3-trifluoromethyl-benzyl)-1H-pyrazol-4-yl]-1,6-dihydro-purin-7-ylmethyl} ester (335)] in vehicle. The treatment was BID for 22 days (colon cancer) or 28 days (breast cancer). At the end of the study, the tumor volume was measured as (length X breadth)/2. Data were presented as % reduction compared to the tumor volume in vehicle treated animals.

[2] = test system: 4T1 cells (breast cancer); assay: 4T1 Breast Cancer Model: tumor suppression in mice; format: in vivo; settings: BALB/c mice, 3 mg/kg, PO, BID, Day 28, n = 12
Procedure: as §1, §2

SMILES: CCCn1c(C#N)nc2nc(-c3cnn(Cc4cccc(C(F)(F)F)c4)c3)n(COP(=O)(O)O)c2c1=O [Compound 335, Phosphoric acid mono-{2-cyano-6-oxo-1-propyl-8-[1-(3-trifluoromethyl-benzyl)-1H-pyrazol-4-yl]-1,6-dihydro-purin-7-ylmethyl} ester]
- % decrease in Tumor growth vs. vehicle On Day 22 [1]: 23.90%
- % decrease in Tumor growth vs. vehicle On Day 28 [2]: 46.40%
